Results taken from publication PMC4959752, “Pharmacokinetics in Wistar Rats of 5-[(4-Carboxybutanoyl)Amino]-2-Hydroxybenzoic Acid: A Novel Synthetic Derivative of 5-Aminosalicylic Acid (5-ASA) with Possible Anti-Inflammatory Activity” (PLoS ONE, 2016).
“Also recorded” adds a separate entry of the source. Where two headings read alike, the source gives them in different places.

Columns and labels:
[1] = Pharmacokinetic study of C2 in Wistar rats (plasma, HPLC, non-compartmental analysis); assay type: in vivo; details: for k el: read-out: Ke (converted); for bioavailability: i.g. 100 mg/kg vs i.v. 50 mg/kg, read-out: F% orally (absolute oral bioavailability)
Text: Prior to the studies (on the day of C2 administration), the Wistar rats (n = 6) were cannulated. For intravenous (i.v.) treatment, a 24 G catheter was placed in the right lateral tail vein (for blood collection), and another catheter was placed in the left (for C2 administration) lateral tail vein of the rat as follows: the animal was placed inside a trap (special acrylic stocks for rats), the rat tail was exposed, and the distal region of the tail was disinfected with 70% ethanol; the tail veins were then dilated using a heating pad (approximately 45°C). An assistant held the tail of the rat while the left lateral vein was located, and a 24 G catheter was then firmly inserted into the posterior third of the caudal vein of the animal, where it was fixed with adhesive tape (for intragastric and intraperitoneal studies, only one catheter was placed on the right for blood collection).
For the intravenous study, a single dose of 50 mg/kg C2 was administered through the 24 G catheter when the rat was inside the trap. For the intragastric (i.g) pharmacokinetic study, a second group of rats (n = 6) received a single dose of 100 mg/kg using a 20 G gavage needle (animals were provided with a standard diet 4 h after dosing). For the intraperitoneal (i.p.) treatment, a third group of rats (n = 6) was injected with 75 mg/kg C2. In all pharmacokinetic studies, approximately 250 μL of blood was collected in heparinized tubes from each rat via the catheter in the right lateral tail vein prior to dosing and 5, 10, 20, 30, 45, 60, 90, 120, 180, 240, 300, 360, 540, 720 and 1440 min after dosing. These blood samples were supplemented with an equal volume of 0.9% sodium chloride solution. Plasma (100 μL) was harvested by centrifuging the blood samples at 8,000 rpm for 15 min, and the plasma was then immediately processed for analysis.
The samples were prepared as follows: briefly, 450 μL of acetonitrile was added to 100 μL of rat plasma, and the mixture was vortexed for 5 min. Subsequently, 450 μL of methanol was added to the sample, which was then vortexed again and centrifuged to precipitate proteins. Subsequently, 10 μL of the supernatant was introduced into the HPLC system. The plasma concentrations of C2 were determined using an RP-HPLC with UV detection method that had previously been validated for pharmacokinetic studies and the complementary assays performed in this work.
The plasma concentration–time data obtained after the i.v., i.g., and i.p. administration of C2 were subjected to a non-compartmental analysis using statistical moment theory. The pharmacokinetic parameters of C2 were calculated using the Kinetica 5.0 software (Adept Scientific Ltd), including the maximum plasma concentration (Cmax), time to reach Cmax (Tmax), elimination half-life (t1/2), area under the plasma concentration-time curve from time zero to the last measurable concentration (AUC0-t), area under the plasma concentration-time curve from time zero to infinity (AUCtot), mean residence time (MRT), clearance (CL), and apparent volume of distribution (Vd).

[2] = Tissue distribution study; assay type: in vivo, Wistar rats
Method: […] The animals were sacrificed 10, 30, 90, 180 and 360 min after dosing (n = 3 per treatment time). The whole brain, heart, liver, spleen, lung, kidney, stomach, small intestine, colon, testicles and muscle were rapidly dissected, harvested and thoroughly rinsed in ice-cold saline to eliminate blood and other content. All tissues and organs were weighed on an analytical balance and immediately processed for analysis. Each tissue sample was homogenized with saline solution at a 1:3 (wt/v) ratio. The preparation process for analysis was the same as that described above for plasma.

[3] = Stability of C2 in rat plasma samples; assay type: in vitro ADME; details: for Difference respect the nominal concentration (%): rat plasma deproteinized samples
Method: The stability of C2 in plasma was evaluated using the QC samples at two concentrations by triplicate ([…]); these samples were stored at 25°C for 12, 24 and 36 h (short-term stability) and subjected to three freeze-thaw cycles (–20°C to 25°C). The post-preparative storage was evaluated by analyzing the ready-to-inject samples that had been refrigerated 4°C for 12, 24 and 36 h. The concentration of C2 after each storage period was related to the initial concentration of freshly prepared and immediately processed samples [40, 41].

Log P = assay type: physicochemical; details: method not given
CD1 mice = test system: CD1 mice; set-up: method as in ref 37 = [37]; 37 OECD Guidelines for the Testing of Chemicals 425: Acute Oral Toxicity—Up-and-Down-Procedure (UDP). 2008.; details: acute toxicity; cited from earlier work
Wistar rats = test system: Wistar rats; set-up: method as in ref 37 = [37]; 37 OECD Guidelines for the Testing of Chemicals 425: Acute Oral Toxicity—Up-and-Down-Procedure (UDP). 2008.; details: acute toxicity; cited from earlier work
[4] = pharmacokinetic model (Kinetica 5.0), bi-exponential decline of plasma concentration
[5] = pharmacokinetic model (Kinetica 5.0), calculated
[6] = rat, plasma, ip, single dose (100 mg/kg in abstract, 75 mg/kg in methods), Wistar rats
[7] = rat, plasma, iv, single dose 50 mg/kg, Wistar rats
[8] = rat, plasma, i.g. (oral), single dose 100 mg/kg, Wistar rats

O=C(O)CCCC(=O)Nc1ccc(O)c(C(=O)O)c1 [C2, 5-[(4-carboxybutanoyl)amino]-2-hydroxybenzoic acid]
detection in the plasma ([1]; 6 h after administration): no longer detected | half-life ([1]; Wistar, rat, plasma, ip, 75 mg/kg, i.p., single dose (100 mg/kg in abstract, 75 mg/kg in methods), Wistar rats, read-out: t1/2 e): 38 ± 3 min | half-life ([1]; Wistar, rat, plasma, iv, 50 mg/kg, i.v., single dose 50 mg/kg, Wistar rats, read-out: t1/2 e (elimination half-life)): ~33 min | Tmax ([1]; Wistar, rat, plasma, iv, 50 mg/kg, single dose 50 mg/kg, Wistar rats): 5 min | half-life ([1]; Wistar, rat, plasma, pharmacokinetic model (Kinetica 5.0), read-out: elimination half-life α (t1/2α)): 18 min | half-life ([1]; Wistar, rat, plasma, pharmacokinetic model (Kinetica 5.0), read-out: elimination half-life β (t1/2β)): 62 min | half-life ([1]; Wistar, rat, plasma, po, 100 mg/kg, i.g. (oral), single dose 100 mg/kg, Wistar rats, read-out: t1/2 e): ~27 min | Cmax ([1]; i.g. (oral), single dose 100 mg/kg, Wistar rats, plasma): 2500 ± 300 ng/mL | Ka ([1]; i.p., single dose (100 mg/kg in abstract, 75 mg/kg in methods), Wistar rats): 1.2 ± 0.2 h⁻¹ | Cp^0 ([1]; i.v., single dose 50 mg/kg, Wistar rats): 26900 ± 3700 ng/mL | α [1, 4]: 0.037 min⁻¹ | β [1, 4]: 0.011 min⁻¹ | K12 [1, 5]: 0.008 min⁻¹ | K21 [1, 5]: 0.022 min⁻¹ | AUC [1, 6]: 12500 ng·h/mL | MRT [1, 6]: 69 min | Cmax ([1]; rat, plasma, ip, single dose (100 mg/kg in abstract, 75 mg/kg in methods), Wistar rats, read-out: Cmax): 8700 ± 400 ng/mL | k el [1, 6]: 0.00025 s⁻¹ | AUC [1, 7]: 20800 ng·h/mL | MRT [1, 7]: 57 min | Vd [1, 7]: 2 ± 0.2 L/kg | clearance [1, 7]: 13 ± 3 mL/min | k el [1, 7]: 0.000361 s⁻¹ | bioavailability ([1]; rat, plasma, oral, Wistar rats): ~13% | bioavailability ([1]; rat, plasma, po, Wistar rats): 13% | Cmax ([1]; rat, plasma, po, intragastric administration, 100 mg/kg, Wistar rats (abstract), read-out: Cmax): 2500 ng/mL | AUC [1, 8]: 2620 ng·h/mL | MRT [1, 8]: 49 min | k el [1, 8]: 0.0005 s⁻¹ | crossing of blood-brain barrier / hemato-testicular barrier (presence in brain and testicles) ([2]; Wistar rats, i.g. and i.p.): effectively crossed the blood-brain barrier and hemato-testicular barrier; also recorded: able to cross the blood brain barrier | tissue distribution ([2]; i.g. and i.p. routes, before the 2 h time point): widely distributed in all examined tissues | tissue distribution ([2]; single intragastric or oral dose (100 mg/kg), Wistar rats, 100 mg/kg): distributed and detected in all examined tissues (including the brain and colon); also recorded: well distributed in all tissues | Difference respect the nominal concentration (%) ([3]; Refrigeration (4°C), 12 h, 1 μg/mL): 0.8% | Difference respect the nominal concentration (%) ([3]; Refrigeration (4°C), 12 h, 2.5 μg/mL): 1.5% | Difference respect the nominal concentration (%) ([3]; Refrigeration (4°C), 12 h, 25 μg/mL): 0.1% | Difference respect the nominal concentration (%) ([3]; Refrigeration (4°C), 12 h, 100 μg/mL): 0.5% | Difference respect the nominal concentration (%) ([3]; Refrigeration (4°C), 24 h, 1 μg/mL): 2.2% | Difference respect the nominal concentration (%) ([3]; Refrigeration (4°C), 24 h, 2.5 μg/mL): 2.6% | Difference respect the nominal concentration (%) ([3]; Refrigeration (4°C), 24 h, 25 μg/mL): 3.1% | Difference respect the nominal concentration (%) ([3]; Refrigeration (4°C), 24 h, 100 μg/mL): 0.4% | Difference respect the nominal concentration (%) ([3]; Refrigeration (4°C), 36 h, 1 μg/mL): 5.3% | Difference respect the nominal concentration (%) ([3]; Refrigeration (4°C), 36 h, 2.5 μg/mL): 2.9% | Difference respect the nominal concentration (%) ([3]; Refrigeration (4°C), 36 h, 25 μg/mL): 4.3% | Difference respect the nominal concentration (%) ([3]; Refrigeration (4°C), 36 h, 100 μg/mL): 0.6% | Difference respect the nominal concentration (%) ([3]; Room Temperature (25°C), 12 h, 1 μg/mL): 1.4% | Difference respect the nominal concentration (%) ([3]; Room Temperature (25°C), 12 h, 2.5 μg/mL): 1.0% | Difference respect the nominal concentration (%) ([3]; Room Temperature (25°C), 12 h, 25 μg/mL): 0.3% | Difference respect the nominal concentration (%) ([3]; Room Temperature (25°C), 12 h, 100 μg/mL): 0.3% | Difference respect the nominal concentration (%) ([3]; Room Temperature (25°C), 24 h, 1 μg/mL): 2.1% | Difference respect the nominal concentration (%) ([3]; Room Temperature (25°C), 24 h, 2.5 μg/mL): 2.3% | Difference respect the nominal concentration (%) ([3]; Room Temperature (25°C), 24 h, 25 μg/mL): 2.9% | Difference respect the nominal concentration (%) ([3]; Room Temperature (25°C), 24 h, 100 μg/mL): 0.7% | Difference respect the nominal concentration (%) ([3]; Room Temperature (25°C), 36 h, 1 μg/mL): 5.8% | Difference respect the nominal concentration (%) ([3]; Room Temperature (25°C), 36 h, 2.5 μg/mL): 2.6% | Difference respect the nominal concentration (%) ([3]; Room Temperature (25°C), 36 h, 25 μg/mL): 3.7% | Difference respect the nominal concentration (%) ([3]; Room Temperature (25°C), 36 h, 100 μg/mL): 1.7% | Difference respect the nominal concentration (%) ([3]; freeze–thaw (–20 to 25°C), Cycle 2 (24 h), 1 μg/mL): 2.7% | Difference respect the nominal concentration (%) ([3]; freeze–thaw (–20 to 25°C), Cycle 2 (24 h), 2.5 μg/mL): 2.9% | Difference respect the nominal concentration (%) ([3]; freeze–thaw (–20 to 25°C), Cycle 2 (24 h), 25 μg/mL): 1.7% | Difference respect the nominal concentration (%) ([3]; freeze–thaw (–20 to 25°C), Cycle 2 (24 h), 100 μg/mL): 0.5% | Difference respect the nominal concentration (%) ([3]; freeze–thaw (–20 to 25°C), Cycle 3 (36 h), 1 μg/mL): 6.0% | Difference respect the nominal concentration (%) ([3]; freeze–thaw (–20 to 25°C), Cycle 3 (36 h), 2.5 μg/mL): 5.1% | Difference respect the nominal concentration (%) ([3]; freeze–thaw (–20 to 25°C), Cycle 3 (36 h), 25 μg/mL): 1.7% | Difference respect the nominal concentration (%) ([3]; freeze–thaw (–20 to 25°C), Cycle 3 (36 h), 100 μg/mL): 0.6% | Difference respect the nominal concentration (%) ([3]; freeze–thaw (–20 to 25°C), cycle 1 (12 h), 1 μg/mL): 1.8% | Difference respect the nominal concentration (%) ([3]; freeze–thaw (–20 to 25°C), cycle 1 (12 h), 2.5 μg/mL): 1.8% | Difference respect the nominal concentration (%) ([3]; freeze–thaw (–20 to 25°C), cycle 1 (12 h), 25 μg/mL): 2.0% | Difference respect the nominal concentration (%) ([3]; freeze–thaw (–20 to 25°C), cycle 1 (12 h), 100 μg/mL): 0.5% | stability in rat plasma ([3]; stored at 4°C and 25°C for 36 h): stable | logP (Log P): 1.3 | LD50 (CD1 mice): > 2000 mg/kg | LD50 (Wistar rats): > 2000 mg/kg
